Reference: patent US9896435B2, “N-pyrrolidinyl,N′-pyrazolyl-urea, thiourea, guanidine and cyanoguanidine compounds as TrkA kinase inhibitors” (Array BioPharma Inc., priority 2012, dated 2018)

How the values were obtained:
Assay in all cases: KinaseProfiler off-target kinase profiling
Format in all cases: biochemical
Details in all cases: 10 μM, ATP near Km
[1] = molecular target: EphB4 (Homo sapiens (Human), UniProt P54760)
Description: (§1) Two representative compounds (Example 2, 14) of the invention were tested for off-target kinase activity at a concentration of 10 μM by Millipore, Inc. in their KinaseProfiler™ service against all the kinases available in their full kinase panel. These compounds were run in duplicate at a concentration of ATP near the Km for each individual kinase according to Millipore's specifications. The results are shown in Table B. Data are reported as percent of control (POC) and are the average of the two replicates.

[2] = molecular target: MARK1 (Homo sapiens (Human), UniProt Q9P0L2)
Description: as §1

[3] = molecular target: MSSK1 (Homo sapiens (Human), UniProt Q9UPE1)
Sequence of MSSK1 (Q9UPE1 whole entry): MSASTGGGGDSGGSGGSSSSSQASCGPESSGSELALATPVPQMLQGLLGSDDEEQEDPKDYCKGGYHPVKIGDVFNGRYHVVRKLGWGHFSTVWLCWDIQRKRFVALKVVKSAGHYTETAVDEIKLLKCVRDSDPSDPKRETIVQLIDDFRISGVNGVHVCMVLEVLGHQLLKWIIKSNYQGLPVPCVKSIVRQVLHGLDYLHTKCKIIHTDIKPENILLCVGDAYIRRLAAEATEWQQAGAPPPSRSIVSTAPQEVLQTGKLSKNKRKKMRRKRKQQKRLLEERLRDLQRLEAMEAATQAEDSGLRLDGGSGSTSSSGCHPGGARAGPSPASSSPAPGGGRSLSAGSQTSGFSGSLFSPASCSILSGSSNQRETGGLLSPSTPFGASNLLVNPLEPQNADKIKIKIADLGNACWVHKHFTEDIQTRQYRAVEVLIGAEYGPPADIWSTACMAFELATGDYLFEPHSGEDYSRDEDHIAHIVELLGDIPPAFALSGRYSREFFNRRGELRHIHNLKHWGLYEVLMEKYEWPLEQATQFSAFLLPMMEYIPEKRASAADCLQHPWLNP
Description: as §1

[4] = molecular target: CLK3 (Homo sapiens (Human), UniProt P49761)
Description: as §1

[5] = molecular target: HIPK1 (Homo sapiens (Human), UniProt Q86Z02)
Description: as §1

[6] = molecular target: SRC (Homo sapiens (Human), UniProt P12931)
Description: as §1

[7] = molecular target: SRPK2 (Homo sapiens (Human), UniProt P78362)
Description: as §1

[8] = molecular target: ROCK-II (Homo sapiens (Human), UniProt O75116)
Description: as §1

[9] = molecular target: EGFR (Homo sapiens (Human), UniProt P00533)
Description: as §1

[10] = molecular target: MKK6 (Homo sapiens (Human), UniProt P52564)
Description: as §1

[11] = molecular target: TAO3 (Homo sapiens (Human), UniProt Q9H2K8)
Description: as §1

[12] = molecular target: PTK5 (Homo sapiens (Human), UniProt P42685)
Description: as §1

[13] = molecular target: STK33 (Homo sapiens (Human), UniProt Q9BYT3)
Description: as §1

[14] = molecular target: TLK2 (Homo sapiens (Human), UniProt Q86UE8)
Description: as §1

[15] = molecular target: EphB2 (Homo sapiens (Human), UniProt P29323)
Description: as §1

[16] = system: BLK
Description: as §1

[17] = molecular target: GRK6 (Homo sapiens (Human), UniProt P43250)
Description: as §1

[18] = molecular target: Ret (Homo sapiens (Human), UniProt P07949)
Description: as §1

[19] = molecular target: WNK2 (Homo sapiens (Human), UniProt Q9Y3S1)
Description: as §1

[20] = molecular target: EphA3 (Homo sapiens (Human), UniProt P29320)
Description: as §1

[21] = molecular target: Abl-P (Homo sapiens (Human), UniProt P00519)
Description: as §1

[22] = molecular target: IGF-1R (Homo sapiens (Human), UniProt P08069)
Sequence of IGF-1R (P08069 31-1367): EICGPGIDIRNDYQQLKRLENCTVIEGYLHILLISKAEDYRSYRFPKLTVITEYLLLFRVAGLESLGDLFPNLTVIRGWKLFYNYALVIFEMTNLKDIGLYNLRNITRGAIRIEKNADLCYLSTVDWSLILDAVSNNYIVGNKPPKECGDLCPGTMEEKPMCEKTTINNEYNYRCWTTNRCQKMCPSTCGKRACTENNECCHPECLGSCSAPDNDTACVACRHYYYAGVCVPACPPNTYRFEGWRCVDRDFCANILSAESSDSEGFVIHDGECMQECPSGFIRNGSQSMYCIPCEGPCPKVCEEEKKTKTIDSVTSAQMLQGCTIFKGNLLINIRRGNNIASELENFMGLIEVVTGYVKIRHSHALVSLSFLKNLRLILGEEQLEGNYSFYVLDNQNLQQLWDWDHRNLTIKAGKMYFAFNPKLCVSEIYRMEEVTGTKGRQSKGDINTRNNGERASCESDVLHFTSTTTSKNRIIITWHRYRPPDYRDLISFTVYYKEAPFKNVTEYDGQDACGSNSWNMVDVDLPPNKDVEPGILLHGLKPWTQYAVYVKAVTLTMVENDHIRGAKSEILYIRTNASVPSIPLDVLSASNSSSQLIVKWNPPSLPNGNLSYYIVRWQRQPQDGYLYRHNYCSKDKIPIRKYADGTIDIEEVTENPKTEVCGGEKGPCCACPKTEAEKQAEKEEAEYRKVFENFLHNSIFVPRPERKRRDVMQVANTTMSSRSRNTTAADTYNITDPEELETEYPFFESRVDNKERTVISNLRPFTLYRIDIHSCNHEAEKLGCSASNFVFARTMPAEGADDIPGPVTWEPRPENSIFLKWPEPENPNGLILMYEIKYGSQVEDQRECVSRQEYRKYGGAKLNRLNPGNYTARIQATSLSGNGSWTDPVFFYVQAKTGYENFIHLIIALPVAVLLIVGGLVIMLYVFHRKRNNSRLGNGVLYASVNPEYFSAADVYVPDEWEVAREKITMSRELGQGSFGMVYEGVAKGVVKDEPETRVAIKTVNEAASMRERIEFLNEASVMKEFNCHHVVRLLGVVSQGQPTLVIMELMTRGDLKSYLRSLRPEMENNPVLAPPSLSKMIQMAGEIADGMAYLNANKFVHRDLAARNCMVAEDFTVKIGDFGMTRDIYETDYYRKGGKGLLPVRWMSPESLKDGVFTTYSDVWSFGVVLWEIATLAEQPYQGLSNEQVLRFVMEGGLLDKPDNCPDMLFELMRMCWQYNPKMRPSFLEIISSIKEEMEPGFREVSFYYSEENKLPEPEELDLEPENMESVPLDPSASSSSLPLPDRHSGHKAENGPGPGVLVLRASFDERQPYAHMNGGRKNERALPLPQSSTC
Description: as §1

[23] = molecular target: ErbB4 (Homo sapiens (Human), UniProt Q15303)
Description: as §1

[24] = molecular target: Mer (Homo sapiens (Human), UniProt Q12866)
Description: as §1

[25] = molecular target: PAK4 (Homo sapiens (Human), UniProt O96013)
Description: as §1

[26] = molecular target: CAMK1 (Homo sapiens (Human), UniProt Q14012)
Sequence of CAMK1 (Q14012 whole entry): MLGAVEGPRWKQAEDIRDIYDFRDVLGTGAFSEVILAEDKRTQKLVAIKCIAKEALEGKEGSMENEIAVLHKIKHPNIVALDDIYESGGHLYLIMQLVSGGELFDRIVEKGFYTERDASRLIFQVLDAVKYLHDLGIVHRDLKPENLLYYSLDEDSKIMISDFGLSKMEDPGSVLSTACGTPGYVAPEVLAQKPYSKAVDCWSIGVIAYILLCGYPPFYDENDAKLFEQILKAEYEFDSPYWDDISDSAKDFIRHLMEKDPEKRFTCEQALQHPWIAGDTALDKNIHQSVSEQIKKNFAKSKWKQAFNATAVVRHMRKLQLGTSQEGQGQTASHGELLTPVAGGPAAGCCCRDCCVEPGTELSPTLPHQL
Description: as §1

[27] = molecular target: MSK2 (Homo sapiens (Human), UniProt O75676)
Sequence of MSK2 (O75676 whole entry): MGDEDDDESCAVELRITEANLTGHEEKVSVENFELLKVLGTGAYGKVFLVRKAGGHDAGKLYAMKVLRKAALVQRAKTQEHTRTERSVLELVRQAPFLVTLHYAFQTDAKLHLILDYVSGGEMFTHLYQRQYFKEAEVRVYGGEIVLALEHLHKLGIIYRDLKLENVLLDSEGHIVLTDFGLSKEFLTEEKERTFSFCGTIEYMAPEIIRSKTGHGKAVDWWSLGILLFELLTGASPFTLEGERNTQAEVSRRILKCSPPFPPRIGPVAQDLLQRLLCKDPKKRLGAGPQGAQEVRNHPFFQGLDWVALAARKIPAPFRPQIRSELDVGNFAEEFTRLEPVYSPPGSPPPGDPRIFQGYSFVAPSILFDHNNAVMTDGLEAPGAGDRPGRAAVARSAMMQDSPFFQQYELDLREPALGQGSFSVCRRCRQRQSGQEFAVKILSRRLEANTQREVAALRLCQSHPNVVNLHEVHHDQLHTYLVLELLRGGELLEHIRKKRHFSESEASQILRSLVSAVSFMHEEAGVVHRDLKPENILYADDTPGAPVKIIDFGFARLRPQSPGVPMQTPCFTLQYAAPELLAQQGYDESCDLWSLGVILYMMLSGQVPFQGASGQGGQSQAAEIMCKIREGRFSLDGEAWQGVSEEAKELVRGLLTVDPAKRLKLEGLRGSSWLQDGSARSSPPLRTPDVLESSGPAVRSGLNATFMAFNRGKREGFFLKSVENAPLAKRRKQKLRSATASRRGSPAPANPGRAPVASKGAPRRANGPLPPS
Description: as §1

[28] = molecular target: Fyn (Homo sapiens (Human), UniProt P06241)
Description: as §1

[29] = molecular target: ULK3 (Homo sapiens (Human), UniProt Q6PHR2)
Sequence of ULK3 (Q6PHR2 whole entry): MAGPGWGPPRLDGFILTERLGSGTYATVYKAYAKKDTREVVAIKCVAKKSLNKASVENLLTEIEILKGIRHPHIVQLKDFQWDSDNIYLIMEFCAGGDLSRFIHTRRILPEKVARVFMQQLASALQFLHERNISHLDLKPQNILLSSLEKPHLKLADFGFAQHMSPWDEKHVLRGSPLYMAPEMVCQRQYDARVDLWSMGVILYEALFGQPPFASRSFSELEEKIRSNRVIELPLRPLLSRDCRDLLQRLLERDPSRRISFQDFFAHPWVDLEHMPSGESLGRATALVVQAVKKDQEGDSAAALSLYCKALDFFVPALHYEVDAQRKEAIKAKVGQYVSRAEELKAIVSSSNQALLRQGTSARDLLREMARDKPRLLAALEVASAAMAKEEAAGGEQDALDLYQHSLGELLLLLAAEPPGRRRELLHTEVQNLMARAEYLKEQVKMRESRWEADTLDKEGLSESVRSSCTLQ
Description: as §1

[30] = molecular target: EphA8 (Homo sapiens (Human), UniProt P29322)
Description: as §1

[31] = molecular target: p38gamma (Homo sapiens (Human), UniProt P53778)
Sequence of p38gamma (P53778 whole entry): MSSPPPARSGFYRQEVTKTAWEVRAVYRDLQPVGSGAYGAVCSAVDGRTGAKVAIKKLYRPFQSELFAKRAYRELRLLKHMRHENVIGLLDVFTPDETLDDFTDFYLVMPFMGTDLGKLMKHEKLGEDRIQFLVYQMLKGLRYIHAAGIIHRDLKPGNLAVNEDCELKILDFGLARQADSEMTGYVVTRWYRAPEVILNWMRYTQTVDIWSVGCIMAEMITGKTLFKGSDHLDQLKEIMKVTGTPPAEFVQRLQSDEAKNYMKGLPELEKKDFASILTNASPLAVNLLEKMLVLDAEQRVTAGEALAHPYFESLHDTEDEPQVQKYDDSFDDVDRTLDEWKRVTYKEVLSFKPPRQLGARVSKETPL
Description: as §1

[32] = molecular target: ERK2 (Homo sapiens (Human), UniProt P28482)
Description: as §1

[33] = molecular target: AKT1 (Homo sapiens (Human), UniProt P31749)
Description: as §1

[34] = molecular target: ALK (Homo sapiens (Human), UniProt Q9UM73)
Description: as §1

[35] = molecular target: ALK4 (Homo sapiens (Human), UniProt P36896)
Description: as §1

[36] = molecular target: EphB1 (Homo sapiens (Human), UniProt P54762)
Description: as §1

[37] = molecular target: PKD1 (Homo sapiens (Human), UniProt Q15139)
Description: as §1

[38] = molecular target: p70S6K (Homo sapiens (Human), UniProt P23443)
Sequence of p70S6K (P23443 whole entry): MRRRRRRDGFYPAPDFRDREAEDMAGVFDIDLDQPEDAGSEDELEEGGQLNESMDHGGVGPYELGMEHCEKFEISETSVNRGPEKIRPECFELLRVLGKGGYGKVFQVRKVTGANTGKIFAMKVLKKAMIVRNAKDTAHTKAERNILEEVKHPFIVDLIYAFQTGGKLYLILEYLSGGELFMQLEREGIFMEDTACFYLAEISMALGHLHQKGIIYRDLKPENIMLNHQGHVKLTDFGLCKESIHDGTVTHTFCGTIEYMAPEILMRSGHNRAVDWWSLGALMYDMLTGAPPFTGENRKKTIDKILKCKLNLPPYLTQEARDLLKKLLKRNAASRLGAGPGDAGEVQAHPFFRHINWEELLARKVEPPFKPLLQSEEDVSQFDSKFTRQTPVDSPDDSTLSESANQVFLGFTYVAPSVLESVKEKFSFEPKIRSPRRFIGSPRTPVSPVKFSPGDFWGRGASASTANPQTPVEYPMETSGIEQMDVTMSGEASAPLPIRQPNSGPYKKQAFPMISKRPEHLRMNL
Description: as §1

[39] = molecular target: Lyn (Homo sapiens (Human), UniProt P07948)
Sequence of Lyn (P07948 whole entry): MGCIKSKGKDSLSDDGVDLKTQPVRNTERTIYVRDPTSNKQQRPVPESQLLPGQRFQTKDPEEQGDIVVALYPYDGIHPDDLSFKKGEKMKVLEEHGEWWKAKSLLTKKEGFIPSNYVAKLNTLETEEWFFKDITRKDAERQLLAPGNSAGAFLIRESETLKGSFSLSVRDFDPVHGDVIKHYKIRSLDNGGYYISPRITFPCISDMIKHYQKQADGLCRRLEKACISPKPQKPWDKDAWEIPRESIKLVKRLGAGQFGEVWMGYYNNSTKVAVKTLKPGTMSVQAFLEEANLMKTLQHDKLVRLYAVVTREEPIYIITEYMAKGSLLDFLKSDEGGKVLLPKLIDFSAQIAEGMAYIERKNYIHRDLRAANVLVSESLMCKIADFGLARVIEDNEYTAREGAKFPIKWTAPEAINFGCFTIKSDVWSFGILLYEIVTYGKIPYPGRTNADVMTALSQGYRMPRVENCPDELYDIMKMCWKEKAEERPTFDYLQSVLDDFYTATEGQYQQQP
Description: as §1

[40] = molecular target: Fes (Homo sapiens (Human), UniProt P07332)
Description: as §1

Avg POC [1] [POC]	Avg POC [2] [POC]	Avg POC [3] [POC]	Avg POC [4] [POC]	Avg POC [5] [POC]	Avg POC [6] [POC]	Avg POC [7] [POC]	Avg POC [8] [POC]	Avg POC [9] [POC]	Avg POC [10] [POC]	Avg POC [11] [POC]	Avg POC [12] [POC]	Avg POC [13] [POC]	Avg POC [14] [POC]	Avg POC [15] [POC]	Avg POC [16] [POC]	Avg POC [17] [POC]	Avg POC [18] [POC]	Avg POC [19] [POC]	Avg POC [20] [POC]	Structure (SMILES)	also measured
104	97.5	118	94	96.5	105	96.5	102.5	105.5	106.5	97.5	108	94	92.5	109.5	92	96.5	106.5	98	101.5	COCCN1C[C@@H](NC(=O)Nc2c(C)c(-c3ccnc(C)c3)nn2-c2ccccc2)[C@H](c2ccc(F)c(F)c2)C1 [Example 2, 1-((3S,4R)-4-(3,4-difluorophenyl)-1-(2-methoxyethyl)pyrrolidin-3-yl)-3-(4-methyl-3-(2-methylpyridin-4-yl)-1-phenyl-1H-pyrazol-5-yl)urea]	Avg POC [21]: 113.5 POC; Avg POC [22]: 63 POC; Avg POC [23]: 98 POC; Avg POC [24]: 90.5 POC; Avg POC [25]: 103.5 POC; Avg POC [26]: 107 POC; Avg POC [27]: 120 POC; Avg POC [28]: 97 POC; Avg POC [29]: 100 POC; Avg POC [30]: 104.5 POC; Avg POC [31]: 92 POC; Avg POC [32]: 106.5 POC; Avg POC [33]: 109.5 POC; Avg POC [34]: 111 POC; Avg POC [35]: 112.5 POC; Avg POC [36]: 93.5 POC; Avg POC [37]: 96 POC; Avg POC [38]: 105.5 POC; Avg POC [39]: 112 POC; Avg POC [40]: 135.5 POC
96	98	109	94	97.5	103.5	102.5	93.5	96.5	99.5	100.5	91	103.5	93.5	120	91.5	97	84	99.5	106.5	COCCN1C[C@@H](NC(=O)Nc2c(C)c(-c3cnc(C)nc3)nn2-c2ccccc2)[C@H](c2cc(F)cc(F)c2)C1 [Example 14, 1-((3S,4R)-4-(3,5-difluorophenyl)-1-(2-methoxyethyl)pyrrolidin-3-yl)-3-(4-methyl-3-(2-methylpyrimidin-5-yl)-1-phenyl-1H-pyrazol-5-yl)urea]	Avg POC [21]: 102.5 POC; Avg POC [22]: 79 POC; Avg POC [23]: 101.5 POC; Avg POC [24]: 78 POC; Avg POC [25]: 100.5 POC; Avg POC [26]: 103.5 POC; Avg POC [27]: 116 POC; Avg POC [28]: 91.5 POC; Avg POC [29]: 98 POC; Avg POC [30]: 104.5 POC; Avg POC [31]: 92.5 POC; Avg POC [32]: 92.5 POC; Avg POC [33]: 98.5 POC; Avg POC [34]: 102.5 POC; Avg POC [35]: 115 POC; Avg POC [36]: 97.5 POC; Avg POC [37]: 97 POC; Avg POC [38]: 98 POC; Avg POC [39]: 105.5 POC; Avg POC [40]: 125 POC
